# ChEMBL document CHEMBL3751764, “Synthesis and in vitro antiproliferative activity of novel pyrazolo[3,4-d]pyrimidine derivatives” (Medchemcomm, 2015)
# The source made the active and inactive calls. The calls are words filed in the database; no cut-off is given here.
# Legend:
# [1] = system: MCF7; test: Cytotoxicity against human MCF7 cells after 72 hrs by SRB assay; assay type: functional, cell-based; details: MCF7, 72 h
# [2] = target: T1, Vascular endothelial growth factor receptor 2 (Homo sapiens, UniProt P35968); test: Inhibition of human VEGFR2 at 10 uM after 20 to 40 mins by liquid scintillation counting analysis in presence of […]; design: scale not given: the % may be the effect or the level left
# T1 sequence (P35968 whole entry): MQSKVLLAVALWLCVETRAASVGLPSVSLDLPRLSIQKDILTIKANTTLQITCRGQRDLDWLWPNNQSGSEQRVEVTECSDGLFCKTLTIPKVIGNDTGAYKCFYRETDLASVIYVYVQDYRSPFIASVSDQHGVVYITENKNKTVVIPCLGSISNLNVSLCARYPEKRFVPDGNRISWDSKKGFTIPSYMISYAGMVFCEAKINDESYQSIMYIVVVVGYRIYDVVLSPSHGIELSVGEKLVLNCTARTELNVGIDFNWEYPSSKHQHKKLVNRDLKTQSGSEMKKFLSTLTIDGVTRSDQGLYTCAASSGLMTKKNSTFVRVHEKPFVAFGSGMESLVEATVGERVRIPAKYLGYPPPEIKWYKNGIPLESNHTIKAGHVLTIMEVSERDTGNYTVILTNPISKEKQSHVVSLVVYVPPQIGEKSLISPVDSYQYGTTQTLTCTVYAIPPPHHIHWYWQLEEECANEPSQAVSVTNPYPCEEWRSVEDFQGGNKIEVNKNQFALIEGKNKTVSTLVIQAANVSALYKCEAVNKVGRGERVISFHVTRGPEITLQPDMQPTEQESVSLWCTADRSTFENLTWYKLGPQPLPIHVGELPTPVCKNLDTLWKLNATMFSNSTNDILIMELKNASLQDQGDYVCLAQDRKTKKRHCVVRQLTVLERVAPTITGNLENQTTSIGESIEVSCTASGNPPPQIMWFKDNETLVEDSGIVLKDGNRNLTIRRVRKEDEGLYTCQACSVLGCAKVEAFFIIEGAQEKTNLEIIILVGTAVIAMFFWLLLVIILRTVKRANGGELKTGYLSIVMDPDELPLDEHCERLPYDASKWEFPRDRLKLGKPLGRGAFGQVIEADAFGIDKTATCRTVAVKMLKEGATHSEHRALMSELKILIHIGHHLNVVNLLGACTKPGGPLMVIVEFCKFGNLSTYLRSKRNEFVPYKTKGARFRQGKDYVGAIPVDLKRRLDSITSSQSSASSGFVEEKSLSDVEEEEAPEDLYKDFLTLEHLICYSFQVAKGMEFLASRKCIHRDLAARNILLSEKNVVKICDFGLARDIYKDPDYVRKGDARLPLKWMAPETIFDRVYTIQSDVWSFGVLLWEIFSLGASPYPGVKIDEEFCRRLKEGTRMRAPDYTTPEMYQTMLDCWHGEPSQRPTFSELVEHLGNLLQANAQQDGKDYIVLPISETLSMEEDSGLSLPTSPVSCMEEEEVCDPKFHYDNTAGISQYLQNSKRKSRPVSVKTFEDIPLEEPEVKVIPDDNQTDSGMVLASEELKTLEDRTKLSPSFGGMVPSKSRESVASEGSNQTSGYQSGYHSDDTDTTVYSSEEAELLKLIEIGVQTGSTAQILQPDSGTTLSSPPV
# [3] = target: Mast/stem cell growth factor receptor Kit (Homo sapiens, UniProt P10721); test: Inhibition of N-terminal GST-tagged recombinant kit (unknown origin) using poly(Glu:Tyr) as substrate by ELISA-based method
# Chain of Mast/stem cell growth factor receptor Kit (P10721 whole entry): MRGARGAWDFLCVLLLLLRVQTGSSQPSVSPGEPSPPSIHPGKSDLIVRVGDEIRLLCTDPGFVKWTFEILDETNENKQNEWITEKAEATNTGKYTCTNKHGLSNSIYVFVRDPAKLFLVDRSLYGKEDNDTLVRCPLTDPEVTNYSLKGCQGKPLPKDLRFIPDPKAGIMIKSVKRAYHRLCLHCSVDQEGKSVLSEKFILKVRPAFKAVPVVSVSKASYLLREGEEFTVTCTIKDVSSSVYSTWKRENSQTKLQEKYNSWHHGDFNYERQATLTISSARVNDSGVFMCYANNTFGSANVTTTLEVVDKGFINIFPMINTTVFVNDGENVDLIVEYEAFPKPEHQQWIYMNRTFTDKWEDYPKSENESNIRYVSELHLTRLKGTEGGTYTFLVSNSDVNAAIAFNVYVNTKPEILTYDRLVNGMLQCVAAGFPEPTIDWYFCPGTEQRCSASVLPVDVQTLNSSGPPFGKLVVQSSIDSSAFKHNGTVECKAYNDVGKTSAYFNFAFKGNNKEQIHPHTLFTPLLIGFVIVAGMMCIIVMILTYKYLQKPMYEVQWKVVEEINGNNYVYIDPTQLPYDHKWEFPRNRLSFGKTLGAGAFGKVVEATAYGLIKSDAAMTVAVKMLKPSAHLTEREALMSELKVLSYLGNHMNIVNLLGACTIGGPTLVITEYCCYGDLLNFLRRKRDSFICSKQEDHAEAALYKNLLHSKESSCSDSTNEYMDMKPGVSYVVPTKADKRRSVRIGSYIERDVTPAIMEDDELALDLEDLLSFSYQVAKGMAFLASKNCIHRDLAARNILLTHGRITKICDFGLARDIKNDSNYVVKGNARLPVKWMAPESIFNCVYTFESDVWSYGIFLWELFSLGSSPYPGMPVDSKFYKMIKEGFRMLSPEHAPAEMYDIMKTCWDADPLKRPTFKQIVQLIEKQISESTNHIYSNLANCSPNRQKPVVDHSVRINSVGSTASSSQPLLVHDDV
# [4] = target: Aurora kinase A (Homo sapiens) (UniProt O14965); test: Inhibition of human aurora A at 10 uM after 20 to 40 mins by liquid scintillation counting analysis in presence of […]
# Chain of Aurora kinase A (Homo sapiens) (O14965 whole entry): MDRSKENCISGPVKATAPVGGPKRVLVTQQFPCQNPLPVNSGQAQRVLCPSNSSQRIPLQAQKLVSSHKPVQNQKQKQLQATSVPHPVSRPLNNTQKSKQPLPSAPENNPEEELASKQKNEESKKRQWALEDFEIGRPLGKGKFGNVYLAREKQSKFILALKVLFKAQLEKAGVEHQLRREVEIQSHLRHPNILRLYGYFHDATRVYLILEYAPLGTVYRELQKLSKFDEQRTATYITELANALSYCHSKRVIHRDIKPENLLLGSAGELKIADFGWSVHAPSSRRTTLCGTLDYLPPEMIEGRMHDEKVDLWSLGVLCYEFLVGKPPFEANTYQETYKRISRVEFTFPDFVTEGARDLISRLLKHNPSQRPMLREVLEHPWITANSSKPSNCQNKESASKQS
# [5] = target: T1, Vascular endothelial growth factor receptor 2; test: Inhibition of VEGFR2 (unknown origin) using poly(Glu,Ala,Tyr) (6:3:1) as substrate after 20 mins by ELISA
# [6] = target: Receptor-type tyrosine-protein kinase FLT3 (Homo sapiens, UniProt P36888); test: Inhibition of Flt3 (unknown origin) using poly(Glu:Tyr) as substrate by ELISA-based method
# Chain of Receptor-type tyrosine-protein kinase FLT3 (P36888 whole entry): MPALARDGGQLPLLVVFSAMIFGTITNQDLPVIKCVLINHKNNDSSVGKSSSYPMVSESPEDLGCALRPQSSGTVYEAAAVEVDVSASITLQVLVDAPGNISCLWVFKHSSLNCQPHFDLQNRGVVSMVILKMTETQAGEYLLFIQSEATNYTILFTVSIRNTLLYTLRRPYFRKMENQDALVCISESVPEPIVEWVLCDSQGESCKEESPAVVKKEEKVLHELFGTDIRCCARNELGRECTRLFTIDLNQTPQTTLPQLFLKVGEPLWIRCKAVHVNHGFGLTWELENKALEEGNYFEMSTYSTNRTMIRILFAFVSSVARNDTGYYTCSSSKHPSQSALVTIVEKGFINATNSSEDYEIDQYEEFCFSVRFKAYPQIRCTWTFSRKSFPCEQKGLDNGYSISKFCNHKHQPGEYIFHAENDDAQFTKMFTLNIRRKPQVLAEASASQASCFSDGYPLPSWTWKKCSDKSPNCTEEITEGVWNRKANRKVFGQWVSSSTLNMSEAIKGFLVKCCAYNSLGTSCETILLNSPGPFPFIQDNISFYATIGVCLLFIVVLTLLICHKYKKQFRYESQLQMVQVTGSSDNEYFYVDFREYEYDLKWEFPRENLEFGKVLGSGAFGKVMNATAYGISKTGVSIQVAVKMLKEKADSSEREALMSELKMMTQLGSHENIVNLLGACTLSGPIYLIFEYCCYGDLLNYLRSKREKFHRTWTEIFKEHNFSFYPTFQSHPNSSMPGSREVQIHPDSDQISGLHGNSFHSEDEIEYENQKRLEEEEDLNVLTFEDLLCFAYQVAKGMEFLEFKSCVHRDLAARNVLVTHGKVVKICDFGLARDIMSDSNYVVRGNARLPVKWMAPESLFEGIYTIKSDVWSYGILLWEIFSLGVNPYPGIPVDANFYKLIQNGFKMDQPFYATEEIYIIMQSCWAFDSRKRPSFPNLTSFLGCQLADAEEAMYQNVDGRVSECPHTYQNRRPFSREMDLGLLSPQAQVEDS
# [7] = target: T1, Vascular endothelial growth factor receptor 2; test: Inhibition of VEGFR2 (unknown origin) using poly(Glu:Tyr) as substrate by ELISA-based method
# [8] = target: T1, Vascular endothelial growth factor receptor 2; test: Inhibition of VEGFR2 (unknown origin) autophosphorylation after 2 hrs by cell-based assay
# [9] = Cytotoxicity against human HL60 cells; assay type: functional, cell-based; details: HL-60
# [10] = target: Aurora kinase A (Homo sapiens, UniProt O14965); test: Inhibition of Aurora A (unknown origin) using poly(Glu:Tyr) as substrate by ELISA-based method
# Chain of Aurora kinase A (O14965 whole entry): as the sequence (O14965 whole entry) above
# [11] = target: Cyclin-dependent kinase 1 (Homo sapiens, UniProt P06493); test: Inhibition of CDK1 (unknown origin) using […] as substrate after 60 mins by TR-FRET assay
# Chain of Cyclin-dependent kinase 1 (P06493 whole entry): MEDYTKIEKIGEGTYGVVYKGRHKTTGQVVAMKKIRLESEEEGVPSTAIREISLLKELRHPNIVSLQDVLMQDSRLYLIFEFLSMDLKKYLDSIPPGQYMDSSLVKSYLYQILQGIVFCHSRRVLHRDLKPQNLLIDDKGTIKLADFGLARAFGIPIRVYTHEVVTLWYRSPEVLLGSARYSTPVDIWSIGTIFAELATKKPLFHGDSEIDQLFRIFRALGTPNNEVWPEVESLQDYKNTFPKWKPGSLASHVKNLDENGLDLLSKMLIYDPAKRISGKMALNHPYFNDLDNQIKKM
# [12] = target: Epidermal growth factor receptor (Homo sapiens) (UniProt P00533); test: Inhibition of human EGFR at 10 uM after 20 to 40 mins by liquid scintillation counting analysis in presence of […]
SMILES,IC50 [1] [µM],Activity [2] [%],also measured
O=C(Nc1ccc(Nc2ncnc3c2cnn3-c2ccccc2)cc1)Nc1ccccc1Cl,55.1,-5,–
O=C(Nc1ccc(OC(F)(F)F)cc1)c1sccc1NCc1ccnc2ccccc12 [OSI-930],–,–,IC50 [3]: 0.08 µM
O=c1sc2cc(Nc3ncnc4c3cnn4-c3ccc(Cl)cc3)ccc2n1Cc1ccc(Cl)cc1Cl,> 100,1,–
Clc1ccc(-n2ncc3c(Nc4nc5ccc(Cl)cc5s4)ncnc32)cc1,85.6,–,–
O=C(Nc1ccc(Nc2ncnc3c2cnn3-c2ccccc2)cc1)Nc1cccc(Br)c1,36.3,-3,–
O=C(Nc1ccc(Cl)c(C(F)(F)F)c1)c1ccc(Nc2ncnc3c2cnn3-c2ccc(Cl)cc2)cc1,4.92,–,–
O=C(Nc1ccc(Cl)c(C(F)(F)F)c1)c1ccc(Nc2ncnc3c2cnn3-c2ccccc2)cc1,75.9,–,–
O=C(Nc1ccc(Nc2ncnc3c2cnn3-c2ccccc2)cc1)Nc1cccc(Cl)c1,4.2,-3,inhibition [4]: inactive
Clc1ccc(COc2ccc(Nc3ncnc4c3cnn4-c3ccc(Cl)cc3)cc2)cc1,> 100,–,–
Cc1cc(F)c(Nc2ncnc3cc(OCc4ccccc4)ccc23)cc1O,–,–,IC50 [5]: < 0.002 µM
O=C(Nc1ccc(Nc2ncnc3c2cnn3-c2ccc(Cl)cc2)cc1)Nc1ccccc1Cl,9.05,1,–
Clc1ccc(COc2ccc(Nc3ncnc4c3cnn4-c3ccccc3)cc2)cc1,4.36,–,–
O=c1sc2cc(Nc3ncnc4c3cnn4-c3ccccc3)ccc2n1Cc1ccc(Cl)c(Cl)c1,1.6,1,–
O=C(Nc1ccccc1)Nc1ccc(Oc2ncnc3c2cnn3-c2ccc(Cl)cc2)cc1,82.5,-3,–
O=C(Nc1ccc(Oc2ncnc3[nH]ncc23)cc1)Nc1ccc(Cl)c(C(F)(F)F)c1,–,–,IC50 [6]: 0.004 µM; IC50 [7]: 2.25 µM
O=C(Nc1ccccc1Cl)c1ccc(Nc2ncnc3c2cnn3-c2ccc(Cl)cc2)cc1,> 100,-8,–
Cc1ccccc1NC(=O)Nc1ccc(Nc2ncnc3c2cnn3-c2ccc(Cl)cc2)cc1,3.15,3,–
Cc1cc2nc(Nc3ncnc4c3cnn4-c3ccccc3)sc2cc1C,> 100,–,–
O=c1sc2cc(Nc3ncnc4c3cnn4-c3ccccc3)ccc2n1Cc1cccc(Br)c1,46.1,2,–
Cc1ccc(C(=O)Nc2cccc(C(F)(F)F)c2)cc1Nc1nc(-c2cccnc2)nc2c1cnn2C,–,–,EC50 [8]: 4.2 µM
O=C(NC1CCCCC1)c1ccc(Nc2ncnc3c2cnn3-c2ccc(Cl)cc2)cc1,> 100,-4,–
N=c1c2cnn(-c3ccccc3)c2ncn1-c1ccc(-c2ccc(C(F)(F)F)cc2)s1,–,–,IC50 [9]: 0.21 µM
O=c1sc2cc(Nc3ncnc4c3cnn4-c3ccccc3)ccc2n1Cc1ccc(Cl)cc1Cl,44,-5,–
O=C(Nc1ccccc1)Nc1ccc(Oc2ncnc3c2cnn3-c2ccccc2)cc1,> 100,1,–
CC(C)n1ncc2cnc(Nc3cc(C(N)=O)n(C)c3)nc21,–,–,IC50 [10]: 0.017 µM; IC50 [11]: 0.024 µM
O=C(Nc1cccc(Cl)c1)c1ccc(Nc2ncnc3c2cnn3-c2ccccc2)cc1,1.12,2,inhibition [12]: inactive
Clc1ccc2nc(Nc3ncnc4c3cnn4-c3ccccc3)sc2c1,> 100,–,–
